Converted amounts (≈) assume the structure as drawn. Like-named read-outs stand apart in the source and are kept apart here.
How the values were obtained:
Wistar EOPS rat = experiment: Minimum lethal dose by slow i.v. perfusion in the rat; type: in vivo
Protocol: The minimum lethal dose of compound No. 1 administered by slow i.v. perfusion in the Wistar EOPS rat is in the neighborhood of 15 mg/kg/min. for 30 min.

galactosemic cataract = experiment: Galactosemic cataract in rats; type: in vivo, weaning male EOPS Wistar rats; conditions: 100 mg/kg/d i.p.
Protocol: GALACTOSEMIC CATARACT IN RATS
The study was conducted using weaning male EOPS Wistar rats having an initial weight of between 45 and 50 g. The animals were fed a high vitamin and high protein regimen containing 20% by weight of galactose. The first signs of cataracts, detected by the ophthalmoscope, appeared beginning with the third day. The animals received daily i.p. doses of the test compound, the treatment being started four days after the commencement of the galactosemic regimen. The evolution of the cataract was followed by the detection of maroon rings visible in the ophthalmoscope. These rings appeared on the external edge of the lens and progressed little by little to its center. Anatomopathological studies of the lenses confirmed that these brown rings correspond well to the characteristic histological lesions of galactosemic cataracts. Photographs taken with the aid of a retinograph facilitated the comparison of the evolution of the lesions.
Statistical calculations according to the .chi.^2 method permit an evaluation of the significance of the results obtained for each of the treatments compared to those for non-treated animals.

capillary permeability = experiment: Capillaroprotecting effects: capillary permeability; type: in vivo, conventional male Wistar rats
Protocol: (§1) Capillaroprotecting effects
The capillary permeability was determined by the method of Charlier et al, Arch. Inter. Physiol.

Solubilities in water = type: physicochemical; conditions: water; read-out: Solubilities in water
Aldose Reductase = biological target: T1, Aldose Reductase (Bos taurus, UniProt P16116); experiment: Inhibition of aldose reductase in vitro (enzyme from beef eye lenses, glyceraldehyde substrate); type: biochemical; conditions: in DMF solution, read-out: percentages of inhibition (aldose reductase)
T1 construct: The enzyme is extracted from beef eye lenses; from tissue; host or cells: beef eye lenses
From the text: Inhibition of Aldose Reductase In Vitro
The reoxidation of NADPH coupled to the enzymatic reaction was followed spectrophotometrically at 340 nm.

carragenin edema = experiment: Anti-inflammatory activity: carragenin edema test; type: in vivo; conditions: for % inhibition of carragenin edema: borate buffer pH 7, 24 h; for inhibition in vivo at 100 mg/kg / inhibition in vivo at 200 mg/kg / inhibition in vivo at 300 mg/kg / inhibition in vivo at 75 mg/kg / inhibition in vivo at 150 mg/kg: Rattus norvegicus, ip
Method in brief: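 Male Wistar EOPS rats receive 0.1 ml of 5% carragenin suspension in physiological serum into the hind-paw metatarsal muscle, with test substance given i.p. in neutralized solution at the same time. Paw edema is measured by plethysmometry at several times after carragenin and reported as % inhibition against pH-matched physiological serum controls.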

capillary resistance = experiment: Capillaroprotecting effects: capillary resistance; type: in vivo, male OFA EOPS rats
Protocol: as §1
The capillary resistance was determined by a variant of the method of Charlier et al, Arch. Inter. Physiol.

C[C@@H]1O[C@@H](OC[C@H]2O[C@@H](Oc3c(-c4ccc(O)c(O)c4)oc4cc(O)cc(O)c4c3=O)[C@H](O)[C@@H](O)[C@@H]2O)[C@@H]2OC(C)(C)O[C@@H]2[C@H]1O [No. 1, 3-O-(2,3-O,O-isopropylidene-6-α-L-rhamnosyl-β-D-glucosyl)-quercetin]
arterial pressure and cardiac frequency, time of maximum (Wistar EOPS rat): attain their maximum values at the twelfth minute of the perfusion
cause of death (Wistar EOPS rat): death occurs by respiratory arrest
hemodynamic effects (Wistar EOPS rat): brief, low intensity hypotension is observed accompanied by bradycardia
minimum lethal dose (Wistar EOPS rat; for 30 min): ~15 mg/kg/min
percentage of animals which have not yet shown the appearance of cataracts (galactosemic cataract; day 0): 100%
percentage of animals which have not yet shown the appearance of cataracts (galactosemic cataract; day 1): 100%
percentage of animals which have not yet shown the appearance of cataracts (galactosemic cataract; day 2): 87.5%
percentage of animals which have not yet shown the appearance of cataracts (galactosemic cataract; day 3): 81%
percentage of animals which have not yet shown the appearance of cataracts (galactosemic cataract; day 4): 50%
significance compared to non-treated animals (chi^2) (galactosemic cataract; day 4): S
percentage of animals which have not yet shown the appearance of cataracts (galactosemic cataract; day 5): 37.5%
significance compared to non-treated animals (chi^2) (galactosemic cataract; day 5): S
percentage of animals which have not yet shown the appearance of cataracts (galactosemic cataract; day 6): 37.5%
significance compared to non-treated animals (chi^2) (galactosemic cataract; day 6): S
percentage of animals which have not yet shown the appearance of cataracts (galactosemic cataract; day 10): 37.5%
significance compared to non-treated animals (chi^2) (galactosemic cataract; day 10): S
percentage of animals which have not yet shown the appearance of cataracts (galactosemic cataract; day 12): 28%
significance compared to non-treated animals (chi^2) (galactosemic cataract; day 12): S
percentage of animals which have not yet shown the appearance of cataracts (galactosemic cataract; day 16): 19%
significance compared to non-treated animals (chi^2) (galactosemic cataract; day 16): S
percentage of animals which have not yet shown the appearance of cataracts (galactosemic cataract; day -4): 100%
percentage reduction of capillary permeability (capillary permeability; 400 mg/kg i.p.): 30%
percentage reduction of capillary permeability (capillary permeability; 800 mg/kg i.p.): 37%
solubility (Solubilities in water): 7000 µg/mL (≈ 10.8 mM)
inhibition at 100 µM (Aldose Reductase; 10^-4 mole/l): 82%
inhibition at 10 µM (Aldose Reductase; 10^-5 mole/l): 32%
% inhibition of carragenin edema (carragenin edema; 75 mg/kg i.p.): 5%
% inhibition of carragenin edema (carragenin edema; 150 mg/kg i.p.): 21%
% inhibition of carragenin edema (carragenin edema; 200 mg/kg i.p.): 0%
inhibition in vivo at 100 mg/kg (carragenin edema; 100 mg/kg i.p., physiological serum, 1/2 h, read-out: % inhibition of carragenin edema): 33%
inhibition in vivo at 200 mg/kg (carragenin edema; 200 mg/kg i.p., physiological serum, 1/2 h, read-out: % inhibition of carragenin edema): 0%
inhibition in vivo at 300 mg/kg (carragenin edema; 300 mg/kg i.p., physiological serum, 1/2 h, read-out: % inhibition of carragenin edema): 30%
inhibition in vivo at 75 mg/kg (carragenin edema; 1 h, pH 7, read-out: % inhibition of carragenin edema, 75 mg/kg i.p., borate buffer pH 7, 1 h): 18%
inhibition in vivo at 75 mg/kg (carragenin edema; 1 h, pH 7, read-out: % inhibition of carragenin edema, 75 mg/kg i.p., borate buffer pH 7, 1 h 1/2): 29%
inhibition in vivo at 150 mg/kg (carragenin edema; 1 h, pH 7, read-out: % inhibition of carragenin edema, 150 mg/kg i.p., borate buffer pH 7, 1 h): 25%
inhibition in vivo at 150 mg/kg (carragenin edema; 1 h, pH 7, read-out: % inhibition of carragenin edema, 150 mg/kg i.p., borate buffer pH 7, 1 h 1/2): 40%
inhibition in vivo at 200 mg/kg (carragenin edema; 1 h, pH 7, read-out: % inhibition of carragenin edema, 200 mg/kg i.p., borate buffer pH 7, 1 h): 16%
inhibition in vivo at 200 mg/kg (carragenin edema; 1 h, pH 7, read-out: % inhibition of carragenin edema, 200 mg/kg i.p., borate buffer pH 7, 1 h 1/2): 37%
inhibition in vivo at 100 mg/kg (carragenin edema; 1 h, read-out: % inhibition of carragenin edema, 100 mg/kg i.p., physiological serum, 1 h): 24%
inhibition in vivo at 200 mg/kg (carragenin edema; 1 h, read-out: % inhibition of carragenin edema, 200 mg/kg i.p., physiological serum, 1 h): 0%
inhibition in vivo at 300 mg/kg (carragenin edema; 1 h, read-out: % inhibition of carragenin edema, 300 mg/kg i.p., physiological serum, 1 h): 37%
inhibition in vivo at 75 mg/kg (carragenin edema; 2 h, pH 7, read-out: % inhibition of carragenin edema, 75 mg/kg i.p., borate buffer pH 7, 2 h): 23%
inhibition in vivo at 150 mg/kg (carragenin edema; 2 h, pH 7, read-out: % inhibition of carragenin edema, 150 mg/kg i.p., borate buffer pH 7, 2 h): 34%
inhibition in vivo at 200 mg/kg (carragenin edema; 2 h, pH 7, read-out: % inhibition of carragenin edema, 200 mg/kg i.p., borate buffer pH 7, 2 h): 38%
inhibition in vivo at 100 mg/kg (carragenin edema; 2 h, read-out: % inhibition of carragenin edema, 100 mg/kg i.p., physiological serum, 2 h): 5%
inhibition in vivo at 200 mg/kg (carragenin edema; 2 h, read-out: % inhibition of carragenin edema, 200 mg/kg i.p., physiological serum, 2 h): 8%
inhibition in vivo at 300 mg/kg (carragenin edema; 2 h, read-out: % inhibition of carragenin edema, 300 mg/kg i.p., physiological serum, 2 h): 8%
inhibition in vivo at 75 mg/kg (carragenin edema; 3 h, pH 7, read-out: % inhibition of carragenin edema, 75 mg/kg i.p., borate buffer pH 7, 3 h): 20%
inhibition in vivo at 150 mg/kg (carragenin edema; 3 h, pH 7, read-out: % inhibition of carragenin edema, 150 mg/kg i.p., borate buffer pH 7, 3 h): 26%
inhibition in vivo at 200 mg/kg (carragenin edema; 3 h, pH 7, read-out: % inhibition of carragenin edema, 200 mg/kg i.p., borate buffer pH 7, 3 h): 30%
inhibition in vivo at 100 mg/kg (carragenin edema; 3 h, read-out: % inhibition of carragenin edema, 100 mg/kg i.p., physiological serum, 3 h): 7%
inhibition in vivo at 200 mg/kg (carragenin edema; 3 h, read-out: % inhibition of carragenin edema, 200 mg/kg i.p., physiological serum, 3 h): 8%
inhibition in vivo at 300 mg/kg (carragenin edema; 3 h, read-out: % inhibition of carragenin edema, 300 mg/kg i.p., physiological serum, 3 h): 16%
inhibition in vivo at 75 mg/kg (carragenin edema; 4 h, pH 7, read-out: % inhibition of carragenin edema, 75 mg/kg i.p., borate buffer pH 7, 4 h): 14%
inhibition in vivo at 150 mg/kg (carragenin edema; 4 h, pH 7, read-out: % inhibition of carragenin edema, 150 mg/kg i.p., borate buffer pH 7, 4 h): 19%
inhibition in vivo at 200 mg/kg (carragenin edema; 4 h, pH 7, read-out: % inhibition of carragenin edema, 200 mg/kg i.p., borate buffer pH 7, 4 h): 21%
inhibition in vivo at 100 mg/kg (carragenin edema; 4 h, read-out: % inhibition of carragenin edema, 100 mg/kg i.p., physiological serum, 4 h): 16%
inhibition in vivo at 200 mg/kg (carragenin edema; 4 h, read-out: % inhibition of carragenin edema, 200 mg/kg i.p., physiological serum, 4 h): 12%
inhibition in vivo at 300 mg/kg (carragenin edema; 4 h, read-out: % inhibition of carragenin edema, 300 mg/kg i.p., physiological serum, 4 h): 27%
inhibition in vivo at 75 mg/kg (carragenin edema; 5 h, pH 7, read-out: % inhibition of carragenin edema, 75 mg/kg i.p., borate buffer pH 7, 5 h): 25%
inhibition in vivo at 150 mg/kg (carragenin edema; 5 h, pH 7, read-out: % inhibition of carragenin edema, 150 mg/kg i.p., borate buffer pH 7, 5 h): 27%
inhibition in vivo at 200 mg/kg (carragenin edema; 5 h, pH 7, read-out: % inhibition of carragenin edema, 200 mg/kg i.p., borate buffer pH 7, 5 h): 30%
inhibition in vivo at 100 mg/kg (carragenin edema; 5 h, read-out: % inhibition of carragenin edema, 100 mg/kg i.p., physiological serum, 5 h): 20%
inhibition in vivo at 200 mg/kg (carragenin edema; 5 h, read-out: % inhibition of carragenin edema, 200 mg/kg i.p., physiological serum, 5 h): 15%
inhibition in vivo at 300 mg/kg (carragenin edema; 5 h, read-out: % inhibition of carragenin edema, 300 mg/kg i.p., physiological serum, 5 h): 30%
inhibition in vivo at 75 mg/kg (carragenin edema; 6 h, pH 7, read-out: % inhibition of carragenin edema, 75 mg/kg i.p., borate buffer pH 7, 6 h): 17%
inhibition in vivo at 150 mg/kg (carragenin edema; 6 h, pH 7, read-out: % inhibition of carragenin edema, 150 mg/kg i.p., borate buffer pH 7, 6 h): 28%
inhibition in vivo at 200 mg/kg (carragenin edema; 6 h, pH 7, read-out: % inhibition of carragenin edema, 200 mg/kg i.p., borate buffer pH 7, 6 h): 18%
inhibition in vivo at 100 mg/kg (carragenin edema; 6 h, read-out: % inhibition of carragenin edema, 100 mg/kg i.p., physiological serum, 6 h): 7%
inhibition in vivo at 200 mg/kg (carragenin edema; 6 h, read-out: % inhibition of carragenin edema, 200 mg/kg i.p., physiological serum, 6 h): 9%
inhibition in vivo at 300 mg/kg (carragenin edema; 6 h, read-out: % inhibition of carragenin edema, 300 mg/kg i.p., physiological serum, 6 h): 27%
inhibition in vivo at 75 mg/kg (carragenin edema; read-out: % inhibition of carragenin edema, 75 mg/kg i.p., borate buffer pH 7, 1/2 h): 18%
inhibition in vivo at 150 mg/kg (carragenin edema; read-out: % inhibition of carragenin edema, 150 mg/kg i.p., borate buffer pH 7, 1/2 h): 15%
inhibition in vivo at 200 mg/kg (carragenin edema; read-out: % inhibition of carragenin edema, 200 mg/kg i.p., borate buffer pH 7, 1/2 h): 9%
% of animals for which the effect is ≥ 25 u cm Hg/h (capillary resistance; 100 mg/kg i.p.): 50%
capillary resistance, effect observed (capillary resistance; 100 mg/kg i.p.): 21.5 ± 4.6 u cm Hg/h
% of animals for which the effect is ≥ 25 u cm Hg/h (capillary resistance; 200 mg/kg i.p.): 90%
capillary resistance, effect observed (capillary resistance; 200 mg/kg i.p.): 41.25 ± 15.3 u cm Hg/h

Source: US4211772A, “Benzopyran glycoside acetals and ketals” (Laboratoires Sarget, priority 1977, dated 1980)
